In US9522888B2, “Substituted bicyclic compounds” (BRISTOL-MYERS SQUIBB COMPANY, priority 2014, dated 2016):
Entries after “also recorded” stand apart in the source; their conditions may differ.

Columns and labels:
circulating lymphocytes [1] = assay: Blood Lymphocyte Reduction (BLR) assay in rat; assay type: in vivo, Lewis rats; conditions: oral; for Percent reduction vs. control at 24 hr post-dose: blood lymphocytes; for lymphocyte reduction: rodent BLR assay, 24 hours post-dose, versus vehicle treated group
Procedure: (§1) Blood Lymphocyte Reduction (BLR) Assay in Rodent:
(§2) Lewis rats or BALB/c mice were dosed orally with vehicle alone (polyethylene glycol 300, “PEG300”) or with test compounds. Compounds were dosed as a solution or suspension in the vehicle, adjusted to reflect the free amount of test article in the event that salt forms are utilized. Blood was drawn at 24 hr and blood lymphocyte counts were determined on an ADVIA 120 Hematology Analyzer (Siemens Healthcare Diagnostics). The results were measured as a reduction in the percentage of circulating lymphocytes as compared to the vehicle treated group at the time of measurement. The results represent the average results of all animals within each treatment group (n=2-4).

circulating lymphocytes [2] = assay: Blood Lymphocyte Reduction (BLR) assay in mouse; assay type: in vivo, BALB/c mice; conditions: oral; for lymphocyte reduction: mice, 24 hours post dose
Procedure: as §1, §2

[3] = system: adjuvant-induced arthritis, hind paw volume; assay: Rat Adjuvant Induced Arthritis Assay (AA); assay type: in vivo, Male Lewis rats; conditions: Lewis rat; for paw swelling (mL) on day 20, Mean / paw swelling (mL) on day 22, Mean: once daily oral prophylactic; for inhibition of disease progression as measured by reduced paw swelling: prophylactic oral dosing regimen, result in words
Procedure: Rat Adjuvant Induced Arthritis Assay (AA) The rat adjuvant-induced arthritis model is an animal model for human rheumatoid arthritis. Male Lewis rats (150-175 g; Harlan, n=8 treatment group) were immunized at the base of the tail with 100 μl of 10 mg/ml freshly ground Mycobacterium butyricum (Difco Laboratories) in incomplete Freund's adjuvant (sigma). Animals were dosed once daily with the test article (as a solution or suspension in the vehicle) or vehicle alone (polyethylene glycol 300, “PEG300”) starting from the day of immunization. The volumes of their hind paws were measured in a water displacement plethysmometer (Ugo Basile, Italy). The baseline paw measurements were taken before onset of the disease (between day 7 to day 10). […] All procedures involving animals were reviewed and approved by the Institutional Animal Care Use Committee.

anti-dsDNA antibodies = assay: MRL/lpr lupus model: anti-dsDNA antibody titers (ELISA); assay type: in vivo, Male MRL/lpr mice; conditions: MRL/lpr mice; for Anti-dsDNA antibody titers (23 weeks of age) (Mean): ratio to pooled MRL/lpr immune serum titer
Procedure: (§3) MRL/lpr is a spontaneous model of lupus. Male MRL/lpr mice (Jackson Laboratory) at the age of 12-14 weeks were enrolled for the study (N=12). Mice were dosed p.o. daily with vehicle (18.4% (w/v) hydroxypropyl-b-cyclodextrin in 13.8 mM citric acid) or with Example 681 at 0.06, 0.3, 1.5 mg/kg. Mice were bled every other week for anti-dsDNA antibodies measured by ELISA using pooled serum from diseased MRL/lpr mice as a positive comparator in each assay. The data were expressed in arbitrary units as a ratio of the titer of the test serum to the titer of the pooled MRL/lpr immune serum.

[4] = system: MOG35-55 induced EAE, clinical score; assay: Mouse Experimental Autoimmune Encephalomyelitis Assay (EAE); assay type: in vivo, C57BL/6 mice; conditions: for Clinical scores on day 22, Mean: C57BL/6 mice, prophylactic oral; for inhibition of disease progression as measured by clinical scores / Clinical scores on day 21 (Mean): C57Bl/6 mice; for inhibition of disease progression as measured by clinical scores: prophylactic oral dosing regimen, result in words; for Clinical scores on day 21 (Mean): mouse EAE, prophylactic oral dosing
kidney histology score = assay: MRL/lpr lupus model: kidney histological analysis; assay type: in vivo, Male MRL/lpr mice; conditions: MRL/lpr mice; for Kidney Histology (nephritis) 23 weeks of age (Mean): total score, highest possible score=36
Procedure: as §3
At the end of study, one kidney was collected into 10% neutral buffered formalin and ZincTris fixatives. Fixed tissues were processed into paraffin blocks, sectioned at 3 μm, and stained with H&E or PASH. Kidney sections were graded using following criteria: Glomerular Damage: 1. Mesangial matrix thickening, cell proliferation, 2. Crescent formation, cellular deposits/casts in Bowman's space, 3. Cellular infiltration, mononuclear cells in glomerular tufts, 4. Fibrosis of Bowman's capsule. Tubular damage: 1. Infiltration of mononuclear cells, 2. Severity of tubular damage, 3. Protein casts. Tubulo-interstitial damage: 1. Fibrosis, 2. Infiltration of mononuclear cells. Each subcategory was assigned a score from 0-4, with the scores for glomerular indices representing the mean from 20 glomeruli per kidney. The total score for each mouse was the sum of the above 9 subcategories, with the highest possible score=36.

[5] = system: guinea pig myelin basic protein induced EAE, clinical score; assay: Rat Experimental Autoimmune Encephalomyelitis (EAE); assay type: in vivo, Female Lewis rats; conditions: Lewis rat; for Clinical Score on Day 11 (Mean): rat EAE, prophylactic oral dosing
Procedure: Rat Experimental Autoimmune Encephalomyelitis (EAE):
Female Lewis rats (150-200 g; Harlan) were immunized at the base of the tail with 0.1 ml of a complete Freund's adjuvant emulsion containing 0.5 mg/mL guinea pig myelin basic protein (Genemed Synthesis) and 2 mg/mL Mycobacterium butyricum (Difco). Beginning on Day 7, rats (n=11/group) were scored individually at least 3×/wk according to the following scheme:
Average clinical scores were calculated for each treatment group on each day of assessment.

[6] = p.o. daily 0.06, 0.3, 1.5 mg/kg, result in words

COc1cccc(OC[C@@H]2CCc3cc([C@H]4CC[C@](N)(CO)C4)ccc3C2)c1 [Example 684, ((1R,3S)-1-amino-3-((R)-6-((3-methoxyphenoxy)methyl)-5,6,7,8-tetrahydronaphthalen-2-yl)cyclopentyl)methanol]
Percent reduction vs. control at 24 hr post-dose (circulating lymphocytes [1]; 0.05 mg/kg): 72%
lymphocyte reduction (circulating lymphocytes [2]; 0.5 mg/kg): 79%
Mouse Blood Lymphocyte Reduction Assay at 24 hr post-dose Percent reduction vs. control (circulating lymphocytes [2]; 0.5 mg/kg): 79%

COCCCCC[C@H]1CCc2cc([C@H]3CC[C@](N)(CO)C3)ccc2C1 [Example 672, ((1R,3S)-1-amino-3-((S)-6-(5-methoxypentyl)-5,6,7,8-tetrahydronaphthalen-2-yl)cyclopentyl)methanol]
Percent reduction vs. control at 24 hr post-dose (circulating lymphocytes [1]; 0.1 mg/kg): 47%
paw swelling (mL) on day 20, Mean ([3]; 0.1 mg/kg): 2.60 mL
paw swelling (mL) on day 20, Mean ([3]; 0.3 mg/kg): 1.46 mL
paw swelling (mL) on day 20, Mean ([3]; 1.0 mg/kg): 0.17 mL
inhibition of disease progression as measured by reduced paw swelling [3]: showed inhibition of disease progression

CCCCCOc1ccc2cc([C@@H]3CC[C@](N)(CO)C3)ccc2c1 [Comparative Compound 703, reference compound]
lymphocyte reduction (circulating lymphocytes [2]; 1.0 mg/kg): 52%
Mouse Blood Lymphocyte Reduction Assay at 24 hr post-dose Percent reduction vs. control (circulating lymphocytes [2]; 1.0 mg/kg): 52%

COc1ccccc1CC[C@@H]1CCc2cc([C@H]3CC[C@](N)(CO)C3)ccc2C1 [Example 681, ((1R,3S)-1-amino-3-((S)-6-(2-methoxyphenethyl)-5,6,7,8-tetrahydronaphthalen-2-yl)cyclopentyl)methanol]
Anti-dsDNA antibody titers (23 weeks of age) (Mean) (anti-dsDNA antibodies; 0.06 mg/kg p.o. daily): 1.861 arbitrary units
Anti-dsDNA antibody titers (23 weeks of age) (Mean) (anti-dsDNA antibodies; 0.3 mg/kg p.o. daily): 0.978 arbitrary units
Anti-dsDNA antibody titers (23 weeks of age) (Mean) (anti-dsDNA antibodies; 1.5 mg/kg p.o. daily): 1.023 arbitrary units
inhibition of disease progression as measured by anti-dsDNA titers (anti-dsDNA antibodies; [6]): showed inhibition of disease progression
Percent reduction vs. control at 24 hr post-dose (circulating lymphocytes [1]; 0.1 mg/kg): 53%
lymphocyte reduction (circulating lymphocytes [1]; 0.1 mg/kg): 53%
Clinical scores on day 22, Mean ([4]; 0.1 mg/kg): 3.1
Clinical scores on day 22, Mean ([4]; 0.5 mg/kg): 1.1
Clinical scores on day 22, Mean ([4]; 2 mg/kg): 0.8
inhibition of disease progression as measured by clinical scores [4]: showed inhibition of disease progression; also recorded: inhibit disease progression
lymphocyte reduction (circulating lymphocytes [2]; 0.5 mg/kg): 85%
Mouse Blood Lymphocyte Reduction Assay at 24 hr post-dose Percent reduction vs. control (circulating lymphocytes [2]; 0.5 mg/kg): 85%
Kidney Histology (nephritis) 23 weeks of age (Mean) (kidney histology score; 0.06 mg/kg p.o. daily): 10.13
Kidney Histology (nephritis) 23 weeks of age (Mean) (kidney histology score; 0.3 mg/kg p.o. daily): 10.00
Kidney Histology (nephritis) 23 weeks of age (Mean) (kidney histology score; 1.5 mg/kg p.o. daily): 12.63
inhibition of disease progression as measured by kidney histology (kidney histology score; [6]): showed inhibition of disease progression

CCOCCC[C@@H]1CCc2cc([C@H]3CC[C@](N)(CO)C3)ccc2C1 [Example 679, ((1R,3S)-1-amino-3-((S)-6-(3-ethoxypropyl)-5,6,7,8-tetrahydronaphthalen-2-yl)cyclopentyl)methanol]
Percent reduction vs. control at 24 hr post-dose (circulating lymphocytes [1]; 0.1 mg/kg): 65%
lymphocyte reduction (circulating lymphocytes [1]; 0.1 mg/kg): 65%
paw swelling (mL) on day 22, Mean ([3]; 0.1 mg/kg): 1.55 mL
paw swelling (mL) on day 22, Mean ([3]; 0.5 mg/kg): 0.36 mL
paw swelling (mL) on day 22, Mean ([3]; 2.50 mg/kg): 0.00 mL
inhibition of disease progression as measured by reduced paw swelling [3]: showed inhibition of disease progression
inhibition of disease progression as measured by reduced clinical scores ([5]; prophylactic oral dosing regimen, result in words): showed inhibition of disease progression
Clinical Score on Day 11 (Mean) ([5]; 0.3 mg/kg): 0.36
Clinical Score on Day 11 (Mean) ([5]; 1.0 mg/kg): 0.09
Clinical Score on Day 11 (Mean) ([5]; 3.0 mg/kg): 0.02
inhibition of disease progression as measured by clinical scores [4]: showed inhibition of disease progression; also recorded: inhibit disease progression
Clinical scores on day 21 (Mean) ([4]; 0.6 mg/kg): 2.9
Clinical scores on day 21 (Mean) ([4]; 3 mg/kg): 1.8
Clinical scores on day 21 (Mean) ([4]; 15 mg/kg): 1.3
lymphocyte reduction (circulating lymphocytes [2]; 0.5 mg/kg): 59%
Mouse Blood Lymphocyte Reduction Assay at 24 hr post-dose Percent reduction vs. control (circulating lymphocytes [2]; 0.5 mg/kg): 59%

COCCCCC[C@@H]1CCc2cc([C@H]3CC[C@](N)(CO)C3)ccc2C1 [Example 673, ((1R,3S)-1-amino-3-((R)-6-(5-methoxypentyl)-5,6,7,8-tetrahydronaphthalen-2-yl)cyclopentyl)methanol]
Percent reduction vs. control at 24 hr post-dose (circulating lymphocytes [1]; 0.1 mg/kg): 62%
